Measurements: patent publication US20100075907A1, “NEUROMEDIN U RECEPTOR AGONISTS AND USES THEREOF” (priority 2006, published 2010)
Non-standard residues stand in square brackets, D forms with d. Residues, ends and D or L forms follow the SMILES beside them. *: point of attachment. X1 = CC(C)CCC[C@@H](C)[C@H]1CC[C@H]2[C@@H]3CC=C4C[C@@H](OC(=O)C*)CC[C@]4(C)[C@H]3CC[C@]12C; Succinimide(1-Et,3-yl) = CCN1C(=O)CC(*)C1=O

Assays:
[1] = biological target: rat NMUR2 (Rattus norvegicus, UniProt Q9ESQ4); assay: 125I-hNMU-25 binding assay, rat R2; set-up: expressed in transfected cells; host or cells: HEK-293 FLP-In cells (pcDNA5); conditions: for IC50: binding
rat NMUR2, sequence (Q9ESQ4 whole entry): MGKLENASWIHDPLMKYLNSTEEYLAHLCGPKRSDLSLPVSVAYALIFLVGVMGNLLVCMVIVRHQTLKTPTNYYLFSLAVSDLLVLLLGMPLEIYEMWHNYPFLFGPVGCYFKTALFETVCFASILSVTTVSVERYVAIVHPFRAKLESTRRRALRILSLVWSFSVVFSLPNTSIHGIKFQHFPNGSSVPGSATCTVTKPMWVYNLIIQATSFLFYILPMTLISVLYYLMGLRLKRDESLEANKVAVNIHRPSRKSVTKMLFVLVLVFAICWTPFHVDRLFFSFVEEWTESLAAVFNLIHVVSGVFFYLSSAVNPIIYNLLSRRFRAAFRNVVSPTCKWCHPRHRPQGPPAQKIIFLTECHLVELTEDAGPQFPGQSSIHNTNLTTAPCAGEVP
Method: (§1) Confluent cell monolayers expressing NMU receptors (the HEK cells described above) were harvested with phosphate buffered saline, collected by centrifugation, and resuspended in membrane buffer (50 mM TrisCl pH 7.4, 5 mM MgCl2, 1× Protease Inhibitor Cocktail, 10 μM phosphoramidon). After the cell pellet was homogenized, the solution was centrifuged at 18,000 rpm for 20 minutes at 4° C. The pellet was resuspended in membrane buffer to yield a final concentration of 0.5-5 μg/μL of membrane and stored at −80° C.
(§2) Experiments were performed in assay buffer (25 mM TrisCl, pH 7.4, 10 mM MgCl2, 2 mM EDTA, 1× Protease Inhibitor Cocktail, 100 μg/mL Bacitricin, 10 μM phosphoramidon) in 200 μL volumes in a 96-well format using 2-5 μg of membrane and 0.1 nM ^125I-hNMU-25 (about 12,000 cpm/well). For non-specific binding, 1 μM hNMU-25 was added. About 5 μL of peptides were added to measure antagonist activity, and the entire reaction was incubated at room temperature with shaking for 80 minutes. The reaction was terminated by rapid filtration through 0.3% poly-ethylenimine presoaked Millipore 96-well filter plates and washed with ice-cold buffer (5 mM TrisCl pH 7.4, 10 mM MgCl2, 2.5 mM EDTA, 0.04% Triton X-100). Plates were air-dried overnight at room temperature and recovered radioactivity was determined by standard scintillation counting. IC50 values were determined using GraphPad Prism software.
(§3) Concentration-response curves and radioligand-binding data were fitted using Prism (GraphPad Software). Results are summarized below in Tables 8 and 9.

[2] = biological target: mouse NMUR2 (Mus musculus, UniProt Q8BZ39); assay: 125I-hNMU-25 binding assay, mouse R2; set-up: expressed in transfected cells; host or cells: HEK-293 FLP-In cells (pcDNA5); conditions: for IC50: binding
mouse NMUR2, sequence (Q8BZ39 whole entry): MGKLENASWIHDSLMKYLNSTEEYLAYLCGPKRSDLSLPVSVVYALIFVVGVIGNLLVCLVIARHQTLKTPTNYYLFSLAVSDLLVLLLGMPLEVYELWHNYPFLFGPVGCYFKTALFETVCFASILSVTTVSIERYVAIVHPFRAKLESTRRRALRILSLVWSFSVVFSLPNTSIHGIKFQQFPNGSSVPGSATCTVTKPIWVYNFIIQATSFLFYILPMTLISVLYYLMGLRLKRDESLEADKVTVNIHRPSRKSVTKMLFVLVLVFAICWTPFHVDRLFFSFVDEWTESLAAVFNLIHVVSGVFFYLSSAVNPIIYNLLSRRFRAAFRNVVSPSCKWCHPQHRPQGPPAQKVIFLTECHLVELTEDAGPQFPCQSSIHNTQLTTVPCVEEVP
Method: as §1, §2, §3

[3] = biological target: T1, Mouse NMUR1-CTG (Mus musculus, UniProt O55040); assay: 125I-hNMU-25 binding assay, mouse R1-CTG; set-up: expressed in transfected cells; host or cells: HEK-293 FLP-In cells (pcDNA5); conditions: for IC50: binding
T1 sequence (O55040 1-428): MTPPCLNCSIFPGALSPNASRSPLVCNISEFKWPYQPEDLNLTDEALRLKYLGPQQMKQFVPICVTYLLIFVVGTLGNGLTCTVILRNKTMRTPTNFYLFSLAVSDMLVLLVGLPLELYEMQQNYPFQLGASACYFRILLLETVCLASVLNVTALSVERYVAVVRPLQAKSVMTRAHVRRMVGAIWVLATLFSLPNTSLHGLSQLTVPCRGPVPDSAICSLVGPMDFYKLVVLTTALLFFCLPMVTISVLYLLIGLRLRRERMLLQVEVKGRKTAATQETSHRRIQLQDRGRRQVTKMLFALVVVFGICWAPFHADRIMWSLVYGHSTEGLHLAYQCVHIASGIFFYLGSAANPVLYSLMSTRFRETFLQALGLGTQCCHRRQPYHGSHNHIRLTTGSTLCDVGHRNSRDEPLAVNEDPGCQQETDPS
Method: as §1, §2, §3

[4] = test system: diet-induced obese mice; assay: Feeding study in diet-induced obese mice (food intake, body weight); format: in vivo; conditions: for % Food intake (FI) reductions Day 1: Day 1, based on vehicle responses; for % Food intake (FI) reductions Day 2: Day 2, based on vehicle responses; for % Food intake (FI) reductions Day 3: Day 3, based on vehicle responses
Source text: NMUR1 knockout (Nmur1−/−) mice were generated using standard homologous recombination techniques. Nmur1 mice were subsequently transferred to Taconic Farms where they were either maintained on a 75% C57BL/6×25% 129S6/SvEv mixed genetic background or backcrossed six generations to C57BL/6. NMUR2 knockout (Nmur2−/−) mice were licensed from Deltagen Inc., San Mateo, Calif. and subsequently transferred to Taconic Farms where they were either maintained on a 75% C57BL/6×25% 129/OlaHsd mixed genetic background or backcrossed for seven generations to C57BL/6. NMUR1 and NMUR2 double knockout (Nmur1&2−/−) mice were generated by crossing N6 Nmur1−/− mice to N7 Nmur2−/− mice. Mice were individually housed in Tecniplast cages in a conventional SPF facility. Mice were initially maintained on a regular chow diet and then early in their life were switched to a high fat diet (D12492: 60% kcal from fat; Research Diets, Inc., New Brunswick, N.J.) with ad libitum access to water in a 12-hour light/12-hour dark cycle.
Ad libitum fed male diet-induced obese mice were weighed and dosed either i.p. or s.c. about 30 minutes prior to the onset of the dark phase of the light cycle and provided with a preweighed aliquot of high fat diet D12492 which was then weighed 2 hours and 18 hours (day 1), 42 hours (day 2), 66 hours (day 3), and 90 hours (day 4) after the onset of the initial dark phase. Mice were weighed at the 18, 42, 66 and 90 hour time points.

[5] = biological target: T2, rat NMUR1-TTG (Rattus norvegicus, UniProt Q9JJI5); assay: 125I-hNMU-25 binding assay, rat R1-TTG; set-up: expressed in transfected cells; host or cells: HEK-293 FLP-In cells (pcDNA5); conditions: for IC50: binding
T2 sequence (Q9JJI5 1-425): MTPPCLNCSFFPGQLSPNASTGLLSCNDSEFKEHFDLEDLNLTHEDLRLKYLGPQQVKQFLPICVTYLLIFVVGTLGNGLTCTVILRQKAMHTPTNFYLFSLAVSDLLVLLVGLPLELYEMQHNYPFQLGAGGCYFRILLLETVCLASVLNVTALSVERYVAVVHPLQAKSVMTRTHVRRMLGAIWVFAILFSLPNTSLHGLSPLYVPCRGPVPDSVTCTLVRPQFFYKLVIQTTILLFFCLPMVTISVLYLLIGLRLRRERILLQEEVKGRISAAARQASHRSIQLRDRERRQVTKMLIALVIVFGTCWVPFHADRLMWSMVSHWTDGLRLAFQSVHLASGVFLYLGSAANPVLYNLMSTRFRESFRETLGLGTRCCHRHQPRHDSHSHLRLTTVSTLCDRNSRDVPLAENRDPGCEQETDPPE
Method: as §1, §2, §3

[6] = acute peripheral administration, wild-type mice

CC(C)C[C@@H](NC(=O)[C@H](Cc1ccccc1)NC(=O)[C@H](Cc1ccc(O)cc1)NC(=O)CNC(=O)[C@H](CCCNC(=N)N)NC(=O)[C@H](CO)NC(=O)[C@H](CCC(N)=O)NC(=O)[C@H](CO)NC(=O)[C@H](C)NC(=O)[C@H](Cc1ccccc1)NC(=O)[C@@H]1CCCN1C(=O)[C@H](CO)NC(=O)[C@H](CCC(N)=O)NC(=O)[C@H](Cc1ccccc1)NC(=O)[C@H](CCC(=O)O)NC(=O)[C@H](CCC(=O)O)NC(=O)[C@H](CC(=O)O)NC(=O)[C@@H](NC(=O)[C@H](CCCNC(=N)N)NC(=O)[C@@H](N)Cc1ccccc1)C(C)C)C(=O)N[C@@H](Cc1c[nH]c2ccccc12)C(=O)N[C@@H](CCCNC(=N)N)C(=O)N1CCC[C@H]1C(=O)N[C@@H](CCCNC(=N)N)C(=O)N[C@@H](CC(N)=O)C(N)=O [Agonist H] (H-FRVDEEFQSPFASQSRGYF[dL]WRPRN-NH2; N-terminus assumed)
% inhibition of NMU-25 binding [1]: 0% | IC50 [1]: > 1000 nM | % inhibition of NMU-25 binding [2]: 20% | IC50 [2]: > 1000 nM | % inhibition of NMU-25 binding [3]: 83% | IC50 [3]: 25 nM | food intake [4, 6]: significantly reduced food intake | food intake ([4]; ip 3.25 mmoles/kg, diet-induced obese Nmur1+/+ and Nmur1−/− mice, about 2 and 18 hours): reduces food intake | % inhibition of NMU-25 binding [5]: 100% | IC50 [5]: 11 nM

CC(=O)N[C@@H](CSCC(=O)O[C@H]1CC[C@@]2(C)C(=CC[C@H]3[C@@H]4CC[C@H]([C@H](C)CCCC(C)C)[C@@]4(C)CC[C@@H]32)C1)C(=O)NCC(=O)N[C@@H](Cc1ccc(O)cc1)C(=O)N[C@@H](Cc1ccccc1)C(=O)N[C@@H](CC(C)C)C(=O)N[C@@H](Cc1ccccc1)C(=O)N[C@@H](CCCNC(=N)N)C(=O)N1CCC[C@H]1C(=O)N[C@@H](CCCNC(=N)N)C(=O)N[C@@H](CC(N)=O)C(N)=O [NMU11] (Ac-C(X1)GYFLFRPRN-NH2)
extension of serum half-life by PEGylation [4]: two days

CCN1C(=O)CC(SC[C@H](NC(C)=O)C(=O)N[C@@H](Cc2ccccc2)C(=O)N[C@@H](CCCNC(=N)N)C(=O)N[C@H](C(=O)N[C@@H](CC(=O)O)C(=O)N[C@@H](CCC(=O)O)C(=O)N[C@@H](CCC(=O)O)C(=O)N[C@@H](Cc2ccccc2)C(=O)N[C@@H](CCC(N)=O)C(=O)N[C@@H](CO)C(=O)N2CCC[C@H]2C(=O)N[C@@H](Cc2ccccc2)C(=O)N[C@@H](C)C(=O)N[C@@H](CO)C(=O)N[C@@H](CCC(N)=O)C(=O)N[C@@H](CO)C(=O)N[C@@H](CCCNC(=N)N)C(=O)NCC(=O)N[C@@H](Cc2ccc(O)cc2)C(=O)N[C@@H](Cc2ccccc2)C(=O)N[C@H](C)C(=O)N[C@@H](Cc2c[nH]c3ccccc23)C(=O)N[C@@H](CCCNC(=N)N)C(=O)N2CCC[C@H]2C(=O)N[C@@H](CCCNC(=N)N)C(=O)N[C@@H](CC(N)=O)C(N)=O)C(C)C)C1=O (some centres unmarked) [NMU13] (Ac-C(Succinimide(1-Et,3-yl))FRVDEEFQSPFASQSRGYF[dA]WRPRN-NH2)
% inhibition of NMU-25 binding [1]: 0% | IC50 [1]: > 1000 nM | % inhibition of NMU-25 binding [2]: 30% | IC50 [2]: > 1000 nM | % inhibition of NMU-25 binding [3]: 100% | food intake [4, 6]: significantly reduced food intake | % inhibition of NMU-25 binding [5]: 100%

Ac-C2FQSPFASQSRGYFLFRPRN-CONH2 ({Ac-C(PEG 40 kDa)}-FQSPFASQSRGYFLFRPRN-NH2; not fully specified; printed as Ac-C2FQSPFASQSRGYFLFRPRN-CONH2) [NMU20, C2 = Cys(PEG)240 kDa]
extension of serum half-life by PEGylation [4]: three days | Body weight (BW) change (in grams) {relative to vehicle} Day 1 ([4]; 10 mg/kg): −2.2 grams | % Food intake (FI) reductions Day 1 ([4]; 10 mg/kg): 67% | Body weight (BW) change (in grams) {relative to vehicle} Day 2 ([4]; 10 mg/kg): −1.1 grams | % Food intake (FI) reductions Day 2 ([4]; 10 mg/kg): 65% | Body weight (BW) change (in grams) {relative to vehicle} Day 3 ([4]; 10 mg/kg): +0.3 grams | % Food intake (FI) reductions Day 3 ([4]; 10 mg/kg): 23%

Ac-C2FRVDEEFQSPFASQSRGYFLFRPRN-CONH2 [NMU9] ({Ac-C(PEG 40 kDa)}-FRVDEEFQSPFASQSRGYFLFRPRN-NH2) [C2 = Cys(PEG)240 kDa from Nektar (mPEG2-MAL-40 k)]
extension of serum half-life by PEGylation [4]: three days | Body weight (BW) change (in grams) {relative to vehicle} Day 1 ([4]; 10 mg/kg): −2.0 grams | % Food intake (FI) reductions Day 1 ([4]; 10 mg/kg): 56% | Body weight (BW) change (in grams) {relative to vehicle} Day 2 ([4]; 10 mg/kg): −1.2 grams | % Food intake (FI) reductions Day 2 ([4]; 10 mg/kg): 57% | Body weight (BW) change (in grams) {relative to vehicle} Day 3 ([4]; 10 mg/kg): −0.2 grams | % Food intake (FI) reductions Day 3 ([4]; 10 mg/kg): 18%

Ac-FRVDEEFQSPFASQSRGYFLFRPRN-NH2 [NMU2]
Body weight (BW) change (in grams) {relative to vehicle} Day 1 ([4]; 3 mg/kg): −0.7 grams | % Food intake (FI) reductions Day 1 ([4]; 3 mg/kg): 25%

Ac-FRVDEEFQSPFASQSRPYFLFRPRN-NH2 [NMU5]
Body weight (BW) change (in grams) {relative to vehicle} Day 1 ([4]; 3 mg/kg): −0.5 grams | % Food intake (FI) reductions Day 1 ([4]; 3 mg/kg): 26%

H-FRVDEEFQSPFASQSRGYFLFRPRN-NH2 [hNMU-25, reference compound]
IC50 [1]: 0.6 nM | IC50 [2]: 0.2 nM | IC50 [3]: 0.15 nM | Body weight (BW) change (in grams) {relative to vehicle} Day 1 ([4]; 10 mg/kg): −0.6 grams | % Food intake (FI) reductions Day 1 ([4]; 10 mg/kg): 21% | IC50 [5]: 0.2 nM

H-FRVDEEFQSPFASQSRPYFLFRPRN-NH2 [NMU4]
Body weight (BW) change (in grams) {relative to vehicle} Day 1 ([4]; 3 mg/kg): −0.3 grams | % Food intake (FI) reductions Day 1 ([4]; 3 mg/kg): 12%
